Data: patent publication US20230027361A1, “METTL3 MODULATORS” (priority 2019, published 2023)
Like-named read-outs stand apart in the source and are kept apart here.

How the values were obtained:
[1] = test system: m6A in cellular mRNA of MOLM-13 cells; assay: m6A-mRNA LC-MS/MS Assay (m6A cellular assay); format: cell-based; conditions: Homo sapiens, MOLM-13, read-out: m^6A IC50
Outline: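 Cells harvested, mRNA extracted and digested to single nucleosides, then analysed by LC-MS/MS. Nucleosides quantified against a standard curve from pure nucleoside standards run in the same batch. m6A level expressed as 100*(m6A/A).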

METTL16 = molecular target: T1, METTL16 (Homo sapiens, UniProt Q86W50); assay: METTL16 Assay (METTL16 biochemical assay); conditions: read-out: METTL16 IC50
T1 sequence (Q86W50 1-562): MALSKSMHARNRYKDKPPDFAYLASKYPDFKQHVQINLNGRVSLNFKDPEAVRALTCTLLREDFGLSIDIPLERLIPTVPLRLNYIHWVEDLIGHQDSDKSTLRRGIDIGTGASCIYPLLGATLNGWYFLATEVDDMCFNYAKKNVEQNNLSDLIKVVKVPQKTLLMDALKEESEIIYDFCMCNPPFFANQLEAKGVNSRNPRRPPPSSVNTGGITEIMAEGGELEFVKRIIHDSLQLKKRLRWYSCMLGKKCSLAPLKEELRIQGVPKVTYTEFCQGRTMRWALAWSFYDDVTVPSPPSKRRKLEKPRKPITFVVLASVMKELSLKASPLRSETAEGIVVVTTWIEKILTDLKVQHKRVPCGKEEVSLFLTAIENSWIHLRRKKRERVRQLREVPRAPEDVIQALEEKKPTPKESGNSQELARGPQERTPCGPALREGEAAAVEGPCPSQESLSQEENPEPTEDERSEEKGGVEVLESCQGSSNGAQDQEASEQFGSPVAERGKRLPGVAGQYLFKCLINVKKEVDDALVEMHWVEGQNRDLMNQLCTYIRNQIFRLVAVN
Outline: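 Radiometric methyltransferase reaction at ambient temperature in 20 mM HEPES pH 7.5, 50 mM KCl, 1 mM DTT, with 100 nM enzyme preincubated 5 min with compound. It was started with 50 nM 3′-biotinylated RNA, 200 nM 3H-SAM plus 800 nM cold SAM, run 20 min, then quenched with excess cold SAM. Product was captured on streptavidin flashplates and scintillation-counted.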

PRMT5-MEP50 = PRMT5-MEP50 (Homo sapiens, UniProt O14744); assay: PRMT5 Assay (PRMT5 biochemical assay)
Outline: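 Radiometric methyltransferase read-out: after 60 min reaction, excess unlabelled SAM (15 μM) stops turnover and biotinylated H4 peptide (100 nM) carrying 3H-methyl from 250 nM 3H-SAM is captured on streptavidin flashplates (2 h, 25° C) for scintillation counting. Enzyme, 2.5 nM PRMT5-MEP50, was preincubated 5 min with compound in pH 8.0 Tris buffer with DTT and Tween.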

METTL1/WDR4 = METTL1/WDR4 (Homo sapiens, UniProt Q9UBP6); assay: METTL1 Assay (METTL1 biochemical assay)
Outline: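 Radiometric methyltransfer by METTL1/WDR4 (6.25 nM f.c., 5 min preincubation) at ambient temperature in HEPES pH 7.5, KCl, MgCl2, DTT; started with 25 nM 3′-biotinylated RNA and 60 nM 3H-SAM, run 20 min, quenched with 15 μM cold SAM. Product captured on streptavidin flashplates (2 h, 25° C), counted by scintillation.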

[2] = read-out: PRMT5 IC50; PRMT5 biochemical assay
[3] = read-out: METTL1 IC50, METTL1 biochemical assay
[4] = PRMT5 biochemical assay; read-out: PRMT5 IC50

Sequence of METTL1/WDR4 (Q9UBP6 whole entry, species assumed): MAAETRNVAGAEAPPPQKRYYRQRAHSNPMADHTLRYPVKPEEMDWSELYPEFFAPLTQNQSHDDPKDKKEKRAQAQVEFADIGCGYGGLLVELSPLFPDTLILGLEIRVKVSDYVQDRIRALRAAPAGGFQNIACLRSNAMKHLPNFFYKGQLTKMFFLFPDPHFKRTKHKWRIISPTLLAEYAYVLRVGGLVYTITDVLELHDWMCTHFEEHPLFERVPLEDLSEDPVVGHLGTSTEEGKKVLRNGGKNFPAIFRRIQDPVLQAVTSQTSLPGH
Sequence of METTL1/WDR4 (P57081 whole entry partner, species assumed): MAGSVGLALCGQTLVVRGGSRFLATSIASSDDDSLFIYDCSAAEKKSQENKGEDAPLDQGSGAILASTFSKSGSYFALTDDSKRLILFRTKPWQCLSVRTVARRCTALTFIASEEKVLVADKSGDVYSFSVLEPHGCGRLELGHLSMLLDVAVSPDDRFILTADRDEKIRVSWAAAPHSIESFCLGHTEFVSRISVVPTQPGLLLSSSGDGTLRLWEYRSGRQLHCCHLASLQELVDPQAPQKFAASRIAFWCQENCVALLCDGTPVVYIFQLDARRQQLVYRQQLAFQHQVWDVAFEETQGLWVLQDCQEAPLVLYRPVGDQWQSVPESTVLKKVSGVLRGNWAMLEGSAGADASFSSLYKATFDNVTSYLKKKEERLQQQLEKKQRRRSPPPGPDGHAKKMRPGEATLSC
Sequence of PRMT5-MEP50 (O14744 whole entry): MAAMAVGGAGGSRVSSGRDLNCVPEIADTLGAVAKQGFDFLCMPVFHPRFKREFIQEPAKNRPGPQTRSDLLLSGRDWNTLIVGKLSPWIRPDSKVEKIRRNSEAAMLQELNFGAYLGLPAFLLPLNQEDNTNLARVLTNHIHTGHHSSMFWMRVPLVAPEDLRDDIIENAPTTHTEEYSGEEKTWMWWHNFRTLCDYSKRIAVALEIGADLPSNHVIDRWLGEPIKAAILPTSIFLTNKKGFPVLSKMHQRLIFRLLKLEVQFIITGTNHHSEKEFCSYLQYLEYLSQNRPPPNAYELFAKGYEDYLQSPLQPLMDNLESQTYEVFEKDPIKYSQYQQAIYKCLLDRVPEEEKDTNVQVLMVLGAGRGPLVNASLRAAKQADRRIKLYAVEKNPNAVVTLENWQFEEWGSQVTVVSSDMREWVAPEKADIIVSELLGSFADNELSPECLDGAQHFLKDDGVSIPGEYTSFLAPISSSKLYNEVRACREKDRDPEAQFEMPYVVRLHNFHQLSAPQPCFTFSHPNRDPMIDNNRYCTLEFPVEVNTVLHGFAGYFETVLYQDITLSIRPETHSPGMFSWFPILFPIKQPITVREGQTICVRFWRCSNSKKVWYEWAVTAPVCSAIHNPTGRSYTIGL
Sequence of PRMT5-MEP50 (Q9BQA1 whole entry partner): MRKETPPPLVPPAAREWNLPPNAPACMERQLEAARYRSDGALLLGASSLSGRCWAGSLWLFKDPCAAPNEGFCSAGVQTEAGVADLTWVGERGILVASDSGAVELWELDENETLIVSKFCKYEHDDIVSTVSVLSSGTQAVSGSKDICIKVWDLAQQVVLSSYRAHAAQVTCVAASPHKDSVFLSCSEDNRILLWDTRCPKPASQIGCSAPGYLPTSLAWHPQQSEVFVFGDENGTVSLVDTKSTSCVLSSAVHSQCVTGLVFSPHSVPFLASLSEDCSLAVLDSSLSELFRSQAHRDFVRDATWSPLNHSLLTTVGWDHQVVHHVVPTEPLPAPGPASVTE

**Q.** Which results are given for `CCNc1ccc2ccc(OC[C@H]3O[C@@H](n4cc(-c5cn(C)cn5)c5c(N)ncnc54)[C@@H](F)[C@@H]3O)cc2n1` [I-10]?
**A.** IC50 [1]: 1000 to 10000 nM; IC50 (METTL16): > 1000 nM; IC50 (PRMT5-MEP50; [2]): 100 to 1000 nM

**Q.** For `CNc1ccc2ccc(OC[C@H]3O[C@@H](n4cc(-c5ccn(C)n5)c5c(N)ncnc54)[C@@H](F)[C@@H]3O)cc2n1` [I-12], which IC50 [1] is on record?
**A.** The IC50 was < 1000 nM.

**Q.** And the IC50 (METTL16)?
**A.** Its IC50 is > 1000 nM.

**Q.** And the IC50 (PRMT5-MEP50; [2])?
**A.** The IC50 was 10 to 100 nM.

**Q.** `CNc1ccc2ccc(OC[C@H]3O[C@@H](n4cc(CC5CCCC5)c5c(N)ncnc54)[C@H](O)[C@@H]3O)cc2n1` [I-23] was tested. Which IC50 [1] did it give?
**A.** The IC50 was 1000 to 10000 nM.

**Q.** What about the IC50 (METTL16) of the same compound?
**A.** The IC50 was > 1000 nM.

**Q.** What about the IC50 (METTL1/WDR4; [3]) of the same compound?
**A.** Its IC50 is > 1000 nM.

**Q.** And the IC50 (PRMT5-MEP50; [4])?
**A.** The IC50 was 10 to 100 nM.

**Q.** Which results are given for `CNc1ccc2ccc(OC[C@H]3O[C@@H](n4cc(C5CC5)c5c(N)ncnc54)[C@@H](F)[C@@H]3O)cc2n1` [I-29]?
**A.** IC50 [1]: 1000 to 10000 nM; IC50 (METTL16): > 1000 nM; IC50 (METTL1/WDR4; [3]): > 1000 nM; IC50 (PRMT5-MEP50; [4]): 100 to 1000 nM

**Q.** For `CNc1ccc2ccc(OC[C@H]3O[C@@H](n4cc(C5CCCC5)c5c(N)ncnc54)[C@H](O)[C@@H]3O)cc2n1` [I-33, (2R,3R,4S,5R)-2-(4-amino-5-cyclopentyl-7H-pyrrolo[2,3-d]pyrimidin-7-yl)-5-(((2-(methylamino)quinolin-7-yl)oxy)methyl)tetrahydrofuran-3,4-diol], which IC50 [1] is on record?
**A.** Its IC50 is < 1000 nM.

**Q.** What about the IC50 (METTL16) of the same compound?
**A.** The IC50 was > 1000 nM.

**Q.** And the IC50 (METTL1/WDR4)?
**A.** Its IC50 is > 1000 nM.

**Q.** What about the IC50 (PRMT5-MEP50; [4]) of the same compound?
**A.** Its IC50 is < 10 nM.

**Q.** How did the IC50 [1] turn out when `CNc1ccc2ccc(OC[C@H]3O[C@@H](n4cc(CC5CC5)c5c(N)ncnc54)[C@@H](F)[C@@H]3O)cc2n1` [I-36] was run?
**A.** Its IC50 is 1000 to 10000 nM.

**Q.** What about the IC50 (METTL16) of the same compound?
**A.** Its IC50 is > 1000 nM.

**Q.** What about the IC50 (METTL1/WDR4; [3]) of the same compound?
**A.** Its IC50 is > 1000 nM.

**Q.** And the IC50 (PRMT5-MEP50; [4])?
**A.** The IC50 was 100 to 1000 nM.

**Q.** How did the IC50 [1] turn out when `CNc1ccc2ccc(CC[C@H]3O[C@@H](n4cc(C5CCCC5)c5c(N)ncnc54)[C@H](O)[C@@H]3O)cc2n1` [I-39] was run?
**A.** Its IC50 is 1000 to 10000 nM.

**Q.** What about the IC50 (METTL16) of the same compound?
**A.** Its IC50 is > 1000 nM.

**Q.** What about the IC50 (METTL1/WDR4; [3]) of the same compound?
**A.** The IC50 was > 1000 nM.

**Q.** What about the IC50 (PRMT5-MEP50; [4]) of the same compound?
**A.** Its IC50 is < 10 nM.

**Q.** How did the IC50 [1] turn out when `CNc1ccc2ccc(OC[C@H]3O[C@@H](n4cc(Cl)c5c(N)ncnc54)[C@H](O)[C@@H]3O)cc2n1` [I-70] was run?
**A.** Its IC50 is 1000 to 10000 nM.

**Q.** What about the IC50 (METTL16) of the same compound?
**A.** The IC50 was > 1000 nM.

**Q.** And the IC50 (METTL1/WDR4; [3])?
**A.** The IC50 was > 1000 nM.

**Q.** And the IC50 (PRMT5-MEP50; [4])?
**A.** The IC50 was < 10 nM.

**Q.** What does the source list for `CNc1ccc2ccc(OC[C@H]3O[C@@H](n4cc(Br)c5c(N)ncnc54)[C@H](O)[C@@H]3O)cc2n1` [I-73]?
**A.** IC50 [1]: 1000 to 10000 nM; IC50 (METTL16): > 1000 nM; IC50 (METTL1/WDR4; [3]): > 1000 nM; IC50 (PRMT5-MEP50; [4]): < 10 nM

**Q.** How did the IC50 [1] turn out when `Cn1ccc(-c2cn([C@@H]3O[C@H](COc4ccc5ccc(N6CCC6)nc5c4)[C@@H](O)[C@@H]3F)c3ncnc(N)c23)n1` [I-149] was run?
**A.** The IC50 was < 1000 nM.

**Q.** What about the IC50 (METTL16) of the same compound?
**A.** The IC50 was > 1000 nM.

**Q.** And the IC50 (METTL1/WDR4; METTL1 biochemical assay, read-out: METTL1 IC50)?
**A.** The IC50 was > 1000 nM.

**Q.** And the IC50 (PRMT5-MEP50; [2])?
**A.** The IC50 was > 1000 nM.
